The target in assay [1] is T1, Glycogen synthase kinase-3 (Homo sapiens, UniProt P49840+P49841). It is filed as protein assay.
Description: Inhibition of glycogen synthase kinase-3 (unknown origin)
In assay [2] the target is T2, Glycogen synthase kinase-3 beta (Homo sapiens, UniProt P49841).
Description: Competitive inhibition of glycogen synthase kinase-3 beta (unknown origin) using GS-1 as substrate after 30 mins by scintillation counting analysis in presence of [gamma-32P]-ATP
Assay [3] addresses T2, Glycogen synthase kinase-3 beta. In words: Inhibition of glycogen synthase kinase-3 beta (unknown origin) using GS-1 as substrate after 20 mins by scintillation counting analysis in presence of [gamma-32P]-ATP.
The target in assay [4] is T1, Glycogen synthase kinase-3. The assay is described as follows: Competitive inhibition of glycogen synthase kinase-3 (unknown origin) in presence of ATP. It is filed as protein assay.

Some results are limits rather than exact numbers.

T2 sequence (P49841 whole entry): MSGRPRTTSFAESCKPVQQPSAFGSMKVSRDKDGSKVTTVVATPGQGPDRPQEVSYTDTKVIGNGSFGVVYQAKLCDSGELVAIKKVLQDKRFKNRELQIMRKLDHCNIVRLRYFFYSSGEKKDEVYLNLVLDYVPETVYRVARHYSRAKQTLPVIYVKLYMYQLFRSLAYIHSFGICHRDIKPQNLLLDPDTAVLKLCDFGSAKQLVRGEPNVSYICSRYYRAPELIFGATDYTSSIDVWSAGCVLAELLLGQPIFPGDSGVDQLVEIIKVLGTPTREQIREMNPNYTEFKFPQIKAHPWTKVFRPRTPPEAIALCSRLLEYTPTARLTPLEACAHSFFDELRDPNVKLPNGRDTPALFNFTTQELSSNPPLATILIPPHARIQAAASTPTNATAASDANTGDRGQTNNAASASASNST

By IC50 is commonly meant the concentration needed to halve the response being measured. In assay [1], `CC(=O)C1=C(c2cn(C)c3ccccc23)C(=O)NC1=O` had a 50% inhibitory concentration (IC50) of 4470 nM.

For the compound `O=C1Nc2ccccc2/C1=C1/Nc2cc(Br)ccc2C1=O`, the IC50 in assay [2] worked out at 4 nM.

As to `O=C(CBr)c1ccc(C2C(=O)c3ccccc3C2=O)cc1`, the IC50 in assay [3] came to 100000 nM.

The compound `Br.CCOC(=O)C/N=C1\NC(c2ccccc2)N(c2ccccc2)S1` (centres undefined) showed a half-maximal inhibitory concentration (IC50) in assay [1] of 7050 nM.

Turning to `Clc1cccc(C2=NC(c3ccccc3)=NN(c3ccccc3)c3ccccc32)c1`, the half-inhibitory concentration (IC50) in assay [1] was 3380 nM.

With `O=S=C(CCl)c1ccc(Cl)cc1`, in assay [3], the half-inhibitory concentration (IC50) is more than 100000 nM.

Take `Br.Br.c1ccc(C/N=C2\NC(c3ccccc3)N(c3ccccc3)S2)cc1` (centres undefined): in assay [1], the half-inhibitory concentration (IC50) amounted to 1280 nM.

Regarding `COc1ccc(CNC(=O)Nc2nc(C)c(C(C)=O)s2)cc1`, the IC50 in assay [4] is given as 400 nM.

In assay [2], `O=C1Nc2ccccc2/C1=C1/Nc2ccccc2C1=O` [INDIRUBIN] yielded an IC50 of 4 nM.
